# Details: 298.15 K
compound,measurement,setting,value
O=c1c(O)c(-c2ccc(O)c(O)c2)oc2cc(O)cc(O)c12,solubility (mole fraction),in ethyl acetate,0.00223
same,solubility (mole fraction),in methanol,0.00144
same,solubility (mole fraction),in n-butyl acetate,0.00184
same,solubility (mole fraction),in n-propyl acetate,0.0019
O=c1c(O)c(-c2ccc(O)cc2)oc2cc(O)cc(O)c12,solubility (mole fraction),in ethyl acetate,0.00452
same,solubility (mole fraction),in methanol,0.00324
same,solubility (mole fraction),in n-butyl acetate,0.0024
same,solubility (mole fraction),in n-propyl acetate,0.00275
OC[C@H]1O[C@@H](Oc2cc(O)cc(/C=C/c3ccc(O)cc3)c2)[C@H](O)[C@@H](O)[C@@H]1O,solubility (mole fraction),in ethyl acetate,6.73e-05
same,solubility (mole fraction),in methanol,0.0086
same,solubility (mole fraction),in n-butyl acetate,1.96e-05
same,solubility (mole fraction),in n-propyl acetate,3.37e-05
Oc1ccc(/C=C/c2cc(O)cc(O)c2)cc1,solubility (mole fraction),in ethyl acetate,0.00895
same,solubility (mole fraction),in methanol,0.0189
same,solubility (mole fraction),in n-butyl acetate,0.00463
same,solubility (mole fraction),in n-propyl acetate,0.00596
